# Results from ChEMBL document CHEMBL3286280, “Importance of sphingosine kinase (SphK) as a target in developing cancer therapeutics and recent developments in the synthesis of novel SphK inhibitors” (J Med Chem, 2014).
# Legend:
# [1] = organism: Homo sapiens; test: Selectivity ratio for SphK1 (unknown origin) over SphK2 (unknown origin)
# [2] = target: T1, Sphingosine kinase 2 (Homo sapiens, UniProt Q9NRA0); test: Competitive inhibition of V5-His-tagged human SphK2 expressed in HEK293 cells assessed as S1P production using sphingosine and [gamma-32P]ATP as substrate by thin layer chromatography; type: cell-based
# T1 sequence (Q9NRA0 whole entry): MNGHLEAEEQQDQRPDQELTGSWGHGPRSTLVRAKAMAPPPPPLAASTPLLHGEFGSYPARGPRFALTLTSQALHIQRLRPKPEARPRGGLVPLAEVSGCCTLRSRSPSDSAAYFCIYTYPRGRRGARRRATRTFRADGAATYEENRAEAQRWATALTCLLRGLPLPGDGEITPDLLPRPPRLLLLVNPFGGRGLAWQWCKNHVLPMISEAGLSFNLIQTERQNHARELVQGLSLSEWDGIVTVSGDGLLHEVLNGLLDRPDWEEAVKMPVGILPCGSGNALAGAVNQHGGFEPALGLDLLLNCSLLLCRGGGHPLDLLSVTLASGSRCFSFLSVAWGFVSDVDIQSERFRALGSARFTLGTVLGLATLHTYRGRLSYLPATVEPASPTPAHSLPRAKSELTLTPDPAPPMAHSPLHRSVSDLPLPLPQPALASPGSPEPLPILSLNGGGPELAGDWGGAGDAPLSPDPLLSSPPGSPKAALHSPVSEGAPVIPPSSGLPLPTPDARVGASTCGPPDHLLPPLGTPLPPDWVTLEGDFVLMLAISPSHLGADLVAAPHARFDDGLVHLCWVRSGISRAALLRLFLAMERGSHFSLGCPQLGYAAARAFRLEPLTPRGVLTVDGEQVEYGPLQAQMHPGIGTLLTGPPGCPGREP
# [3] = target: T1, Sphingosine kinase 2; test: Inhibition of SphK2 (unknown origin) using sphingosine and [gamma-32P]ATP as substrate
# [4] = target: T1, Sphingosine kinase 2; test: Inhibition of SphK2 (unknown origin)
Ki [4],SMILES,Selectivity ratio [1],further results
–,CCCCCCCCc1ccc(CCN2CCCC(O)C2)cc1 (stereo unspecified),6.1,–
–,CCCCCc1ccc(/C=C/[C@H](O)[C@@H](CO)NC)cc1,–,IC50 [2]: 10 µM
–,CCCCOc1ccc(CC/C=C2\SC(=O)N(CCN)C2=O)cc1,–,Ki [3]: 4.3 µM
27 µM,CCCCCCCCc1ccc(CC[C@@](N)(CO)COC)cc1,–,–
–,CCCCCCCCc1ccc(CCN2CCC(O)CC2)cc1,15,–
12 µM,CCCCCCCCCCCCC/C=C/[C@@H](O)[C@H](CO)N(C)C [DIMETHYLSPINGOSINE],–,–
